The values that follow come from US6894079B1, “Method for reducing free-radical induced injury” (priority 1998, dated 2005).

SMILES strings stand for the structures.

Assay [1] relates to Rat pulmonary artery endothelial cells (RPAECs). Briefly: H2O2 oxidative stress to endothelial cell monolayers, DCFDA fluorescence (confocal imaging). It is filed as cell-based. The method, then: Rat pulmonary artery endothelial cells (RPAECs) were grown to confluence on optical grade culture dishes using standard technique. Cells were grown in Dulbecco's Modified Eagles Medium (high glucose) containing […], 0.8 M NaOH 10% serum (calf serum). Cells were incubated at 37° C. in 5% CO2, 95% relative humidity.
An oxidative stress indicator, dichlorofluorescein diacetate (DCFDA), was used to indicate the extent of injury to cells. DCFDA is a colorless substance that permeates through the cell membrane. Fresh DCFDA (5 uM) was prepared by solubilizing 2.4 mg DCFDA in 300 ul DMSO, then diluting the solution in […] Phosphate buffered saline (PBS), pH 7.4. […] Upon excitation by contact with free radicals, the dye DCFDA becomes fluorescent and the intensity of fluorescence is directly proportional to the degree of oxidative stress suffered by the cells. […]
Oxidative stress was initiated by the addition of the buffer containing 10 mM H2O2 in PBS to the cell monolayers. Oxidative stress to cells was measured by sequential imaging with a confocal laser microscope obtained at baseline and every 10 seconds for 120 seconds. The excitation filter was wet at 488 nm and the images were read at 515 nm. […]
Relative fluorescence of cell monolayers exposed to perflubron (open circles) and standard buffer (closed circles) are shown in FIG. 1. […] Data are expressed as mean+standard error of the mean. […]

The nature of assay [2]: AAPH peroxyl-radical oxidation of linoleic acid/SDS micelles, malondialdehyde formation. As to conditions: 2, 4, 20 and 50 mM AAPH; 5 ml emulsion plus 5 ml perflubron, room temperature (FIGS. 4A-D). As for the experimental part: This embodiment illustrates the effect of perfluorocarbon on fatty acid oxidation in a non-biological system (fatty acid micelles). Linoleic acid micelles were prepared as follows: Linoleic acid (3 mM) was emulsified into phosphate buffered saline (PBS) using the detergent sodium dodecyl sulfate (SDS, 250 μM). Linoleic acid/SDS micelles in PBS were formed by agitation and sonication of the resulting emulsion. The emulsion (5 ml) was exposed to perfluorocarbon by the addition of perflubron (PFOB, 5 ml, available commercially) to the system. Emulsions not exposed to perflubron served as controls. The emulsion/PFOB system (PFOB exposed micelles) and the non-exposed micelles (control) were agitated (xyz axial shaker) at room temperature. […] The degree of oxidative injury to the linoleic acid/SDS micelles was assessed by measuring malondialdehyde concentrations in aliquots taken from the emulsion phase at different time intervals. […] Malondialdehyde was measured using the method of Esterbauer and Cheeseman (Meth. Enzymol. 1990; 186:407-421). […] Absorbance changes were measured using a spectrophotometer (Beckman DU 650, Beckman Instruments) at 586 nm, against standard curves of 1,1,3,3-tetramethoxypropane at the end of the incubation period. […]

On to `FC(F)(F)C(F)(F)C(F)(F)C(F)(F)C(F)(F)C(F)(F)C(F)(F)C(F)(F)Br` [PFOB, perfluorooctyl bromide], for which the “oxidative injury to cell monolayers” value in assay [1] (10 mM H2O2 in PBS, imaging every 10 seconds for 120 seconds, perflubron removed by aspiration or evaporation (FIGS. 1, 2 and 3)) was “attenuates oxidative injury to cell monolayers”. The “DCFDA fluorescence (indicator of free radicals) in cell cultures” value in assay [1] (after 120 seconds of oxidative stress with 10 mM H2O2, cells pre-exposed 1 minute to 1 ml PFOB, then removed (C120, FIG. 2 and 3)) is listed as “lack of fluorescence”. Moreover, in assay [2], the “oxidative damage to fatty acid micelles (malondialdehyde concentration)” value was “attenuates oxidative damage to fatty acid micelles”.
